Data on 17 compounds can be found in article PMC10747300, “Identification of Indazole-Based Thiadiazole-Bearing Thiazolidinone Hybrid Derivatives: Theoretical and Computational Approaches to Develop Promising Anti-Alzheimer’s Candidates” (Pharmaceuticals, 2023).

Assay [1] has as its target T1, acetylcholinesterase (AChE) (Homo sapiens, UniProt P22303).
T1 construct: purchased Sigma 9000-81-1 (so in the source); this is the CAS number of acetylcholinesterase, not a catalogue number
In words: biochemical. The method, then: (§1) A spectrophotometric analysis was conducted by Ellman et al. to determine the inhibition of ChEs (AChE and BuChE). […] An incubation of 15 min was performed at room temperature with 140 L of sodium phosphate buffer (pH 8.0), 20 L of AChE/BuChE solution, and 20 L of the test sample. AChE/BuChE solutions containing DTNB were introduced into the 10 L solution to initiate the reaction. […] A percentage of inhibition was calculated using the ratio of enzyme activity in the presence of the test sample (E), minus enzyme activity without the test sample (S), expressed as E–S/E100. Each substance’s inhibition of substrate hydrolysis by ChE was quantified using its IC50 value (g/mL) or M. Compounds with the same IC50 values are calculated using the same standardized plot.

In assay [2] the target is T2, butyrylcholinesterase (BuChE) (Homo sapiens, UniProt P06276).
T2 construct: purchased Sigma 9001-08-5 (this is the CAS number of cholinesterase, not a catalogue number)
T2 sequence (P06276 29-602): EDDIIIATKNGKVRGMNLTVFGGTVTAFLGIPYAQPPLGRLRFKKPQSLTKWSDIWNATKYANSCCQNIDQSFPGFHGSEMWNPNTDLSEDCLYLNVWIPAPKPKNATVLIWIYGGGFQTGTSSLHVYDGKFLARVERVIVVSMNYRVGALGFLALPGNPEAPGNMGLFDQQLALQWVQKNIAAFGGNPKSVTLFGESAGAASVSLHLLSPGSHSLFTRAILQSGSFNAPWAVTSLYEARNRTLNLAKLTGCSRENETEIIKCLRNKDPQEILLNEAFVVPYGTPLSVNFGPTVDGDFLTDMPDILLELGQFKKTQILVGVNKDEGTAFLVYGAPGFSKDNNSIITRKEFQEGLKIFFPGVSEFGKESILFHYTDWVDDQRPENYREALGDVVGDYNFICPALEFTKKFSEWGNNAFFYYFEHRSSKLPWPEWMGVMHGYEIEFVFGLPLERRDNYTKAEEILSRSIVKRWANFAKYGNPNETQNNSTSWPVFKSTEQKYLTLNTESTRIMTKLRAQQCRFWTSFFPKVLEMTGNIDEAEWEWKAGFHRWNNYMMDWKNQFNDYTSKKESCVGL
In words: biochemical. The method, then:
as §1

Setting [3] is: substrate ATCh, DTNB, pH 8.0, 15 min incubation, read-out: AChE IC50 ± SEM.
The mark [4] stands for this setting: printed without unit in Figure 2 (second value of each pair), read-out: BuChE IC50.
Where [5] appears, read: substrate BTCh, DTNB, pH 8.0, 15 min incubation, read-out: BuChE IC50 ± SEM.
[6] abbreviates: printed without unit in text / Figure 2, read-out: AChE IC50.

Values joined by “and” are separate entries in the source; they are usually repeats but may differ in a detail not shown here. Equal values may be shown once. Read-outs that look alike come from different tables or passages of the source.

T1 sequence (P22303 32-614): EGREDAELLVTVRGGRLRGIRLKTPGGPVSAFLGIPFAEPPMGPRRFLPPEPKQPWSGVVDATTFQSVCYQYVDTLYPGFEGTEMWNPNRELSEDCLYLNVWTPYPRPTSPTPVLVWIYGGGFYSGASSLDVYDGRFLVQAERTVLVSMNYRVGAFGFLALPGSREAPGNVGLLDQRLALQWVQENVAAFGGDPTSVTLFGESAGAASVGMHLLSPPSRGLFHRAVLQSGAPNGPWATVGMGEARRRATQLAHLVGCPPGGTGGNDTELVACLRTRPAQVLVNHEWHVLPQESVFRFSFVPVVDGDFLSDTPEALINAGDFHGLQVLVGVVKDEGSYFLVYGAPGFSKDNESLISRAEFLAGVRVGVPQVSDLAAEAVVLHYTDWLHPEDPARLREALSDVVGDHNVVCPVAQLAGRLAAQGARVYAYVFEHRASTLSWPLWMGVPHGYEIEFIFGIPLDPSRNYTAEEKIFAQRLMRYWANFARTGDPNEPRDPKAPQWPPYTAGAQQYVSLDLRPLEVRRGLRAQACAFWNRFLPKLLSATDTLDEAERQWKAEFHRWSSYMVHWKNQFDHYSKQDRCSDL

For `O=C1N/C(=N/c2nnc(-c3ccc4[nH]ncc4c3)s2)S/C1=C/c1cc(Cl)c(Cl)c([N+](=O)[O-])c1` [Compound 1, (Z)-2-((5-(1H-Indazol-5-yl)-1,3,4-Thiadiazol-2-yl)Imino)-5-((E)-3,4-Dichloro-5-Nitrobenzylidene)Thiazolidin-4-One], the IC50 in assay [1] (setting [3]) was 860 nM and 1100 nM; in assay [2] (setting [4]), 1190 ± 420 nM; in assay [2] (setting [5]), 890 nM and 1190 nM.

As for `O=C1N/C(=N/c2nnc(-c3ccc4[nH]ncc4c3)s2)S/C1=C/c1ccccc1Cl` [Compound 2, (Z)-2-((5-(1H-Indazol-5-yl)-1,3,4-Thiadiazol-2-yl)Imino)-5-((E)-2-Chlorobenzylidene)Thiazolidin-4-One], the results for the IC50 in assay [1] (setting [6]), in assay [1] (setting [3]) and in assay [2] (setting [5]) were 3110 ± 590 nM, 3110 ± 590 nM and 3360 ± 280 nM, respectively.

`Cc1ccc(/C=C2/S/C(=N\c3nnc(-c4ccc5[nH]ncc5c4)s3)NC2=O)c(C)c1` [Compound 3, (Z)-2-((5-(1H-Indazol-5-yl)-1,3,4-Thiadiazol-2-yl)Imino)-5-((E)-2,4-Dimethylbenzylidene)Thiazolidin-4-One]: the IC50 came out at 8260 ± 400 nM in assay [1] (setting [6]), 8260 ± 400 nM in assay [1] (setting [3]) and 8800 ± 130 nM in assay [2] (setting [5]).

As to `Cc1cc(C)cc(/C=C2/S/C(=N\c3nnc(-c4ccc5[nH]ncc5c4)s3)NC2=O)c1` [Compound 4, (Z)-2-((5-(1H-Indazol-5-yl)-1,3,4-Thiadiazol-2-yl)Imino)-5-((E)-3,5-Dimethylbenzylidene)Thiazolidin-4-One], the IC50 in assay [1] (setting [6]) was 8600 ± 1050 nM; in assay [1] (setting [3]), 8600 ± 1050 nM; in assay [2] (setting [5]) it was 8840 ± 980 nM.

In the case of `COc1ccc(/C=C2/S/C(=N\c3nnc(-c4ccc5[nH]ncc5c4)s3)NC2=O)cc1` [Compound 5, (Z)-2-((5-(1H-Indazol-5-yl)-1,3,4-Thiadiazol-2-yl)Imino)-5-((E)-4-Methoxybenzylidene)Thiazolidin-4-One], the IC50 in assay [1] (setting [6]) came to 10400 ± 980 nM; in assay [1] (setting [3]), 10400 ± 980 nM; in assay [2] (setting [5]) it was 10600 ± 740 nM.

For the compound `COc1cccc(/C=C2/S/C(=N\c3nnc(-c4ccc5[nH]ncc5c4)s3)NC2=O)c1` [Compound 6, (Z)-2-((5-(1H-Indazol-5-yl)-1,3,4-Thiadiazol-2-yl)Imino)-5-((E)-3-Methoxybenzylidene)Thiazolidin-4-One], the IC50 was determined as 12700 ± 330 nM in assay [1] (setting [6]), 12700 ± 330 nM in assay [1] (setting [3]) and 13000 ± 150 nM in assay [2] (setting [5]).

For the compound `O=C1N/C(=N/c2nnc(-c3ccc4[nH]ncc4c3)s2)S/C1=C/c1ccc([N+](=O)[O-])cc1` [Compound 7, (Z)-2-((5-(1H-Indazol-5-yl)-1,3,4-Thiadiazol-2-yl)Imino)-5-((E)-4-Nitrobenzylidene)Thiazolidin-4-One], the values for the IC50 in assay [1] (setting [3]) and in assay [2] (setting [5]) were 1400 ± 310 nM and 1570 ± 280 nM, respectively.

On to `O=C1N/C(=N/c2nnc(-c3ccc4[nH]ncc4c3)s2)S/C1=C/c1ccc(Cl)c(Cl)c1` [Compound 8, (Z)-2-((5-(1H-Indazol-5-yl)-1,3,4-Thiadiazol-2-yl)Imino)-5-((E)-3,4-Dichlorobenzylidene)Thiazolidin-4-one], for which the figures for the IC50 in assay [1] (setting [3]) and in assay [2] (setting [5]) were 1220 ± 640 nM and 1290 ± 410 nM, respectively.

As for `O=C1N/C(=N/c2nnc(-c3ccc4[nH]ncc4c3)s2)S/C1=C/c1ccc(C(F)(F)F)cc1` [Compound 9, (Z)-2-((5-(1H-Indazol-5-yl)-1,3,4-Thiadiazol-2-yl)Imino)-5-((E)-4-(Trifluoromethyl)Benzylidene)Thiazolidin-4-One], the half-maximal inhibitory concentration (IC50) in assay [1] (setting [6]) amounted to 860 ± 300 nM; in assay [1] (setting [3]), 860 ± 300 nM; in assay [2] (setting [4]), 890 ± 120 nM; in assay [2] (setting [5]), 890 ± 120 nM.

Take `O=C1N/C(=N/c2nnc(-c3ccc4[nH]ncc4c3)s2)S/C1=C/c1ccc(Br)cc1` [Compound 10, (Z)-2-((5-(1H-Indazol-5-yl)-1,3,4-Thiadiazol-2-yl)Imino)-5-((E)-4-Bromobenzylidene)Thiazolidin-4-One]: the half-maximal inhibitory concentration (IC50) in assay [1] (setting [6]) amounted to 24680 ± 120 nM; in assay [1] (setting [3]) it was 24680 ± 120 nM; in assay [2] (setting [5]) it was 25000 ± 440 nM.

Turning to `O=C1N/C(=N/c2nnc(-c3ccc4[nH]ncc4c3)s2)S/C1=C/c1cccc(Br)c1` [Compound 11, (Z)-2-((5-(1H-Indazol-5-yl)-1,3,4-Thiadiazol-2-yl)Imino)-5-((E)-3-Bromobenzylidene)Thiazolidin-4-One], the IC50 is 26700 ± 840 nM in assay [1] (setting [6]), 26700 ± 840 nM in assay [1] (setting [3]) and 27080 ± 190 nM in assay [2] (setting [5]).

With `Cc1cc(Br)cc(/C=C2/S/C(=N\c3nnc(-c4ccc5[nH]ncc5c4)s3)NC2=O)c1` [Compound 12, (Z)-2-((5-(1H-Indazol-5-yl)-1,3,4-Thiadiazol-2-yl)Imino)-5-((E)-3-Bromo-5-Methylbenzylidene)Thiazolidin-4-One], the values for the IC50 in assay [1] (setting [6]), in assay [1] (setting [3]) and in assay [2] (setting [5]) were 25120 ± 180 nM, 25120 ± 180 nM and 26200 ± 670 nM, respectively.

As to `O=C1N/C(=N/c2nnc(-c3ccc4[nH]ncc4c3)s2)S/C1=C/c1cccc2ccccc12` [Compound 13, (2Z,5E)-2-((5-(1H-Indazol-5-yl)-1,3,4-Thiadiazol-2-yl)Imino)-5-(Naphthalen-1-Ylmethylene)Thiazolidin-4-One], the “AChE IC50” value in assay [1] (printed without unit in text / Figure 2) was “no discernable activity”.

`O=C1N/C(=N/c2nnc(-c3ccc4[nH]ncc4c3)s2)S/C1=C/c1ccc(F)cc1O` [Compound 14, (Z)-2-((5-(1H-Indazol-5-yl)-1,3,4-Thiadiazol-2-yl)Imino)-5-((E)-4-Fluoro-2-Hydroxybenzylidene)Thiazolidin-4-One]: the half-inhibitory concentration (IC50) in assay [1] (setting [6]) was 920 ± 100 nM; in assay [1] (setting [3]), 1100 nM and 920 nM; in assay [2] (setting [4]), 980 ± 480 nM; in assay [2] (setting [5]) it was 1190 nM and 980 nM.

For the compound `O=C1N/C(=N/c2nnc(-c3ccc4[nH]ncc4c3)s2)S/C1=C/c1ccccc1F` [Compound 15, (Z)-2-((5-(1H-Indazol-5-yl)-1,3,4-Thiadiazol-2-yl)Imino)-5-((E)-2-Fluorobenzylidene)Thiazolidin-4-One], the IC50 amounted to 1240 ± 360 nM in assay [1] (setting [6]), 1240 ± 360 nM in assay [1] (setting [3]), 1270 ± 400 nM in assay [2] (setting [4]) and 1270 ± 400 nM in assay [2] (setting [5]).

On to `O=C1N/C(=N/c2nnc(-c3ccc4[nH]ncc4c3)s2)S/C1=C/c1cccc(F)c1` [Compound 16, (Z)-2-((5-(1H-Indazol-5-yl)-1,3,4-Thiadiazol-2-yl)Imino)-5-((E)-3-Fluorobenzylidene)Thiazolidin-4-One], for which the IC50 was found to be 1200 ± 580 nM in assay [1] (setting [6]), 1200 ± 580 nM in assay [1] (setting [3]), 1200 ± 470 nM in assay [2] (setting [4]) and 1200 ± 470 nM in assay [2] (setting [5]).

`O=C1N/C(=N/c2nnc(-c3ccc4[nH]ncc4c3)s2)S/C1=C/c1ccc(Br)c([N+](=O)[O-])c1` [Compound 17, (Z)-2-((5-(1H-Indazol-5-yl)-1,3,4-Thiadiazol-2-yl)Imino)-5-((E)-4-Bromo-3-Nitrobenzylidene)Thiazolidin-4-One]: the IC50 in assay [1] (setting [6]) is 22300 ± 1000 nM; in assay [1] (setting [3]) it was 22300 ± 1000 nM; in assay [2] (setting [5]), 20500 ± 860 nM.
